Entries after “also recorded” stand apart in the source; their conditions may differ. Where a name gives a salt, the structure may show the parent alone.
How the values were obtained:
[1] = system: pp28-luciferase HCMV Towne; experiment: microbe, parasite or virus in culture; assay type: cell-based, human cytomegalovirus (HCMV)
Source text: A GCV-resistant pp28-luciferase HCMV strain, with a C607Y mutation in UL97 was also used. The recombinant viruses express luciferase under the control of the late CMV gene promoter, pp28. […] The recombinant viruses provide a highly-sensitive and reproducible reporter system which correlates with the classic plaque reduction assay. […] Human herpes virus strains were: luciferase HSV1-KOS/Dlux/oriS and clinical isolates of HSV2.
Cell culture, virus infection and anti-viral assays. […] Infection with HCMV or HSV was performed in HFFs, and infection with mouse CMV was performed in MEFs. For HCMV, cells were seeded in either a 96-well plate or 100 mm culture plates (Corning Costar, Sigma Aldrich) at 0.5 or 2 million cells/plate. Following 90 minute adsorption, media was removed and cells were washed with PBS. Media containing 4% FBS and compounds were added to each well. Infected treated HFFs were collected at 72 hpi and lysates were assayed for luciferase activity using a luciferase assay kit (Promega, Madison, WI) on GloMax®-Multi+Detection System (Promega). In second cycle assays, supernatants were collected from all conditions of the first cycle at 96 hpi and used for infection of fresh HFFs in 96-well-plates. […] For HSV1-KOS/Dlux/oriS, a luciferase assay was performed at 24 hpi. Plaque assays were performed with clinical isolates of HSV2 and HCMV Towne. […] Following virus adsorption (60 min and 90 min for HSV and HCMV, respectively), virus was aspirated, and DMEM containing 4% fetal bovine serum (FBS) with (for HSV) or without (for HCMV) 0.5% carboxymethyl-cellulose, were added with the compounds at indicated concentrations into triplicate wells. After incubation at 37° C. for 10 days (for HCMV) or 2 days (for HSV), the overlay was removed and plaques were counted after crystal violet staining.

[2] = system: HCMV Towne; experiment: HCMV Towne plaque reduction assay in HFFs; assay type: cell-based, human cytomegalovirus (HCMV)
Source text: (§1) Cell culture, virus infection and anti-viral assays.

[3] = system: HSV-1 (luciferase HSV1-KOS/Dlux/oriS); experiment: HSV-1 luciferase assay in HFFs; assay type: cell-based, herpes simplex virus 1; conditions: nM concentrations
Source text: as §1

[4] = system: pp28-luciferase HCMV Towne; experiment: Drug combination emetine + GCV, Bliss model; assay type: cell-based, human cytomegalovirus (HCMV); conditions: combined with ganciclovir (GCV), dihydrochloride hydrate
Procedure: Drug combination. The combined inhibitory effect of compounds on HCMV replication was determined in infected HFFs. A dose response curve was first generated for each compound; the EC50 and slope were calculated. […] The Bliss model was used for quantification of the effect of two compounds on HCMV replication (40). In this model, drug combination represents the product of two probabilistically independent events as described in the following equation (41): […]
The combined effect of two inhibitors (FU, fractional unaffected) is computed as the product of individual effects of the two inhibitors, FU1 and FU2. If the ratio of observed fold inhibition divided by the expected fold inhibition is greater than 1, the compounds are synergistic. If the ratio is less than 1, the combination is considered antagonistic, and if it equals to 1 the combination is additive.

[5] = system: HCMV entry; experiment: Virus entry immunofluorescence assay for pp65; assay type: cell-based; conditions: emetine 75 nM, GCV 10 μM, CpG 2006 10 μM; added 24 h prior to infection; dihydrochloride hydrate
Procedure: Immunofluorescence. […] Compounds were diluted in serum-free medium and added to HFFs seeded on chamber slides 24 h prior to infection. After infection and treatment, cells were fixed, permeabilized, and air-dried. Cells were then incubated with mouse monoclonal anti-pp65 antibody at 37° C. in humidified chambers for 1 h, washed three times with 0.1% Tween 20 in PBS (PBST), incubated with rhodamine conjugated anti-mouse IgG (Sigma Chemical Co) at 37° C. in humidified chambers for 1 h, and washed with PBST (0.1% Tween 20). A drop of mount oil containing DAPI (4,6-diamidino-2-phenylindole) (Santa Cruz) was added to the slides before visualization with a Nikon Eclipse E-800 fluorescence microscope.

[6] = system: pp28-luciferase HCMV Towne; experiment: Second cycle luciferase assay; assay type: cell-based, human cytomegalovirus (HCMV); conditions: emetine 75 nM, vs infected control
Source text: as §1

[7] = target: T1, RPS14 and MDM2 (Homo sapiens, UniProt P62263+Q00987); experiment: Co-immunoprecipitation of RPS14 and MDM2; RPS14 expression and ubiquitination; assay type: cell-based
T1 construct: endogenous in cells; host or cells: Human foreskin fibroblasts (HFFs, ATCC CRL-2088), infected with HCMV Towne
Source text: (§2) SDS-polyacrylamide gel electrophoresis and immunoblot analysis. Cell lysates were quantified for protein content using bicinchoninic acid (BCA) protein assay kit (Pierce Chemical, Rockford, IL). Equivalent amount of proteins were used for Western blot analysis as described previously. Protein bands were visualized by chemiluminescence using Western Blotting Luminol Reagent (Santa Cruz Biotechnology, Santa Cruz, CA). The following antibodies were used for detection of HCMV proteins: mouse anti-IE1 and IE2, (MAb810); mouse anti-UL44 (Santa Cruz biotechnology Santa Cruz, CA); mouse monoclonal anti-pp65 (Vector laboratories, Burlingame, CA); mouse monoclonal anti-β-actin antibody (Millipore, Billerica, MA); rabbit polyclonal anti-RPS14 and mouse monoclonal anti-MDM2 (AbCam, Cambridge, UK), mouse monoclonal anti-p53 (Santa Cruz, CA); horseradish peroxidase (HRP)-conjugated goat anti-rabbit IgG (Cell Signaling); and HRP-conjugated sheep anti-mouse IgG, (GE Healthcare, Waukesha, WI). For detection of co-immunoprecipitated proteins, protein A-HRP conjugate (Cell Signaling Technologies, Beverly, MA) was used as secondary antibody to eliminate the interfering IgG bands.
(§3) Co-immunoprecipitation (IP) and immunoblotting. Non-infected, infected or emetine-treated HFFs were treated with MG132 (10 μM) for 12 h. […] 1 mg of lysate was precleared with bead slurry for 30 min. The precleared lysates were incubated with anti-MDM2 (2 μg) antibody overnight. The antibody complexes were isolated using protein A/G beads (Santa Cruz), washed three times with 50% IP buffer. The immunoprecipitate—protein A/G beads were boiled in SDS sample buffer, and the supernatant was analyzed on SDS-PAGE gels after immunoblotting as described previously. […] Reverse IPs were performed by pulling down the precleared lysates with either anti-p53 antibody or anti-RPS14 antibody and detected with MDM2. […] In other experiments, transfected or treated HEK293 cell lysates were pulled-down with anti-IE2 antibody and detected with anti-MDM2 antibody and vice-versa for reverse IP.

[8] = system: MDM2-p53; experiment: Co-immunoprecipitation of MDM2 and p53; MDM2 and p53 expression; assay type: cell-based, human; conditions: contact-inhibited infected cells
Source text: as §2, §3

[9] = target: RPS14 (Homo sapiens, UniProt P62263); experiment: Confocal microscopy of RPS14 localization; assay type: cell-based; conditions: 24 hpi; infected cells; emetine 75 nM
Procedure: Confocal microscopy. […] Cells were fixed with 3.7% paraformaldehyde for 20 min at room temperature, permeabilized with ice cold methanol for 10 min at −20° C. and blocked with 5% bovine serum albumin in 0.5% Tween-20 for 20 min at room temperature. Cells were incubated with primary antibodies at 4° C. overnight, washed and incubated with fluorescently labeled secondary antibodies for 2 h at 37° C. Fluorescence microscopy was performed by using a confocal laser scanning microscope (Nikon EZ Cl confocal microscope). All images were captured at 60× magnification and processed under identical conditions with constant parameters (including scan speed and excitation and emission wavelengths) using Nikon EZ Cl software.

[10] = system: HCMV in RPS14 knockdown cells; assay type: cell-based, human cytomegalovirus (HCMV); conditions: contact-inhibited RPS14 knockdown cells; luciferase first and second cycle, pp65 at 72 hpi; dihydrochloride hydrate
[11] = system: GCV-resistant pp28-luciferase HCMV (C607Y mutation in UL97); conditions: nM concentrations
Procedure: Viruses. The pp28-luciferase HCMV Towne strain was constructed as previously described. A GCV-resistant pp28-luciferase HCMV strain, with a C607Y mutation in UL97 was also used. The recombinant viruses express luciferase under the control of the late CMV gene promoter, pp28. Luciferase expression is strongly activated 48-72 hours post infection (hpi). The recombinant viruses provide a highly-sensitive and reproducible reporter system which correlates with the classic plaque reduction assay.
Cell culture, virus infection and anti-viral assays. Human Foreskin Fibroblasts (HFFs) passage 12-16 (ATCC, CRL-2088™) and mouse embryonic fibroblasts (MEFs) passage 9-14 (ATCC, CRL-1658™) were grown in Dulbecco's Modified Eagle Medium (DMEM) containing 10% fetal bovine serum (FBS) (Gibco, Carlsbad, CA) in a 5% CO2 incubator at 37° C. Infection with HCMV or HSV was performed in HFFs, and infection with mouse CMV was performed in MEFs. For HCMV, cells were seeded in either a 96-well plate or 100 mm culture plates (Corning Costar, Sigma Aldrich) at 0.5 or 2 million cells/plate. Following 90 minute adsorption, media was removed and cells were washed with PBS. Media containing 4% FBS and compounds were added to each well. […] Luciferase activity was measured 72 h following second cycle infection.

[12] = system: malaria; conditions: 17 patients; 40 mg IM x 6 daily doses; cited from earlier work
[13] = human; cited from earlier work

With `CC[C@H]1CN2CCc3cc(OC)c(OC)cc3[C@@H]2C[C@@H]1C[C@H]1NCCc2cc(OC)c(OC)cc21` [emetine, emetine dihydrochloride hydrate] the “HCMV inhibition in relation to cell density at time of infection” value ([1]; HFFs 0.5-2 million cells/plate, emetine 75 nM, GCV 5 μM) was “significant virus inhibition was observed only at higher cell density”, the EC50 ([1]; Human betaherpesvirus 5, read-out: EC50 against HCMV) was 40 nM and the “reduction in normalized luciferase activity at low cell density” value ([1]; emetine 75 nM, 0.5 million cells/plate in 96-well plate) was “no significant reduction”. For the same compound, the “concentration that fully inhibits HCMV” value ([1]; luciferase at 72 hpi) was 75 nM, the “inhibition of HCMV by plaque reduction assay” value [2] was “further confirmed” and the “reduction in the number and size of plaques” value ([2]; 2 million cells/plate (p<0.001) as compared to 0.5 million cells/plate, emetine 75 nM) was 30 fold. The “inhibition of HSV-1” value [3] was “inhibited”, the “combined effect of emetine and GCV on virus inhibition” value [4] was “synergistic virus inhibition” and the “inhibition of viral entry” value [5] was “neither emetine nor GCV inhibited viral entry; also recorded: does not inhibit”. The “increase in pp28-luciferase activity, second cycle infection” value ([6]; 0.5 million cells/plate, p>0.5) was 1.5 fold, the “reduction in pp28-luciferase activity, second cycle infection” value ([6]; 1 million cells/plate, p<0.001) was 1.5 fold and the “pp28-luciferase activity, second cycle infection” value ([6]; 2 million cells/plate, p<0.001) was “almost complete inhibition”. The “interaction between RPS14 and MDM2” value ([7]; 24 hpi, contact-inhibited infected cells, not cycling cells, MG132 present) was “strongly induced”, the “HCMV-induced RPS14 expression” value ([7]; 72 hpi, contact-inhibited infected cells, emetine 75 nM) was “reduced” and the “ubiquitinated RPS14” value ([7]; 72 hpi, only in contact-inhibited cells, MG132) was “increased”. For the same compound, the MDM2 expression ([8]; 72 hpi) was “increased”, the p53 expression ([8]; 72 hpi) was “increased” and the “HCMV-induced interaction between MDM2 and p53” value ([8]; not cycling cells, MG132) was “disrupted”. The RPS14 localization [9] was “induced RPS14 translocation into the nucleus”, the “HCMV inhibition in RPS14 knockdown cells” value [10] was “unable to inhibit HCMV; also recorded: loss of HCMV inhibition” and the “inhibition of GCV-resistant HCMV” value [11] was “inhibited”. The treatment of malaria [12] was “successful treatment” and the half-life [13] was 24 to 48 h.
